Measurements published in patent publication US9920092B1, “Composition having anti-oxidant, anti-aging, and autophagy activities and uses thereof” (Incospharm Corporation, priority 2017, dated 2018).

Columns and labels:
[1] = test system: human epidermal keratinocyte cells; experiment: Western blot of anti-oxidant and autophagy-related protein expression; assay type: cell-based; conditions: 50, 100, or 200 um, 48 hours
Experimental: (§1) In order to find a cause of increasing an intracellular anti-oxidant activity by treatment with the compound represented by Structural Formula 1, cDNA microarray was performed, thereby confirming that transcription of several kinds of important genes associated with anti-oxidation and autophagy was increased. Proteins for the selected genes were quantified by western blot.
As a specific experimental method, after treating human epidermal keratinocyte cells (Gibco BRL) with the compound represented by Structural Formula 1 at a concentration of 50, 100, or 200 um while culturing the cells in a 600 culture dish, culturing was performed for 48 hours. After the culturing was terminated, a medium was removed, a RIPA lysis buffer containing protease inhibitor cocktail (2 ug/ml aprotinin, 5 ug/ml leupeptin, 1 ug/ml pepstatin A, 1 mM PMSF, 5 mM EDTA and 1 mM EGTA) was added thereto, thereby obtaining an entire cell homogenate. Thereafter, total proteins were quantified through microBCA assay (SMART micro BCA protein assay kit, Intron biotechnology), the cell homogenate (10 to 20 ug) was loaded on a SDS-PAGE gel, and respective proteins were isolated by electrophoresis and moved to a nitrocellulose membrane. […]

[2] = test system: human dermal fibroblast cells; experiment: Electron microscopy assay of autophagy structures; assay type: cell-based; conditions: 50 uM, 24 hours; FIGS. 8 and 9
Experimental: As a specific experimental method, after treating human dermal fibroblast cells with the compound represented by Structural Formula 1 at a concentration of 50 uM while culturing the cells, the culturing was performed for 24 hours. After the culturing was terminated, the cells were fixed, a paraffin block was prepared, and then, cell images were analyzed using an electron microscope.
An autophagy pathway starts from formation of an isolated precursor membrane having a cup shape, referred to as phagophore. The phagophore may form a double membrane […] known as autophagosome through initiation, nucleation, elongation, and closure processes. The autophagosome carries condensed proteins, organelles or pathogenic bacteria in damaged cells to lysosome in a captured state, and fused with lysosome to form autophagolysosome. The autophagolysosome decomposes the captured constituents in an acidic environment mediated by acid hydrolase.

[3] = test system: genes associated with anti-oxidation and autophagy; experiment: cDNA microarray of genes associated with anti-oxidation and autophagy; assay type: cell-based
Experimental: as §1

[4] = test system: human epidermal keratinocyte cells; experiment: Intracellular ROS by DCFH-DA dye and FACS scanning after H2O2; assay type: cell-based; conditions: 100 uM pre-treatment for 48 hours, 10 uM H2O2 10 minutes, FIG. 4
Experimental: In order to measure an intercellular anti-oxidant activity of the compound represented by Structural Formula 1 according to the present invention, an amount of intracellular reactive oxygen species (ROS) was measured using 6-carboxy-2′,7′-dichlorofluorescein diacetate (DCFH-DA) dye and fluorescence activated cell sorter (FACS) scanning.
As a specific experimental method, human epidermal keratinocyte cells (Gibco BRL) were uniformly seeded onto a 600 culture dish (3×10^5 cells/dish) and cultured in an epilife medium (Gibco BRL) containing human keratinocyte growth supplement (HKGS, Gibco BRL) at 37° C. in a 5% CO2 incubator for 24 hours. Thereafter, the test materials (H2O2, vitamin C, and the compound represented by Structural Formula 1) were each dissolved in water at a concentration of 10 mM to prepare a concentrate, the prepared concentrate was diluted so as to have a concentration of 100 uM using the medium and put into a culture dish to treat the cells. Then, culturing was performed for 48 hours, and after the culturing was terminated, the medium was removed and the resultant was washed, thereby preparing a subsequent experiment. Next, 10 uM hydrogen peroxide was added thereto, the culturing was performed for 10 minutes, the resultant was washed again. […]

[5] = ABTS radical scavenging assay (in-vitro anti-oxidant activity); assay type: biochemical; conditions: absorbance at OD734 after 30 minutes; FIG. 3
Experimental: In order to measure in-vitro anti-oxidant activity of the compound represented by Structural Formula according to the present invention, ABTS radical scavenging assay was performed. When 2,2′-azino-bis-(3-ethylbenzothiazoline-6-sulfonic acid (ABTS) reacts with potassium persulfate, ABTS^+, which is an active cation, is formed, but in the case in which an anti-oxidant material is present in a test sample, ABTS^+ is removed by anti-oxidant activity, a greenish blue color, which is a peculiar color of ABTS^+, is decolorized, which may be measured as an absorbance value, thereby making it possible to evaluate the anti-oxidant activity.
As a specific experimental method, after mixing ABTS diammonium salt (7 mM) and potassium persulfate (2.45 mM) with each other in distilled water in order to activate stabilized ABTS diammonium salt, a reaction was carried out at room temperature for 16 hours, thereby forming an ABTS radical. After diluting the resultant in a phosphate buffer solution (PBS) to prepare a reaction solution so that an OD734 value was about 1.5, the reaction solution was mixed with vitamin C (Vit C), pyrrolidone carboxylic acid (PCA), or the compound represented by Structural Formula 1 disclosed in the present invention to induce a reaction. After 30 minutes, an amount of the remaining activated ABTS radical was analyzed by measuring absorbance at OD734.

[6] = test system: human epidermal keratinocyte cells; experiment: LC3 puncta assay (confocal microscope); assay type: cell-based; conditions: 100 uM, 48 hours, anti-LC3 immunostaining; FIG. 7
Experimental: As a specific experimental method, after 200 ul of poly-L-lysine (sigma) was put into each well of a 15 ul slide glass (Ibidi) and a reaction was carried out at room temperature for 30 minutes, followed by coating, human epidermal keratinocyte cells (Gibco BRL) were cultured and treated with respective test materials (rapamycin, compound represented by Structural Formula 1, and vitamin C) at a concentration of 100 uM. After the culturing for 48 hours was terminated, a medium was removed, and the cultured cells were fixed and blocked using formalin. Thereafter, the cells were labeled with anti-LC3 (Abfrontier) and anti-rabbit IgG-FITC (sigma), nucleus was stained with 4′,6′-diamidine-2′-phenylindole dihydrochloride (DAPI), and then, whether or not a puncta was formed in the cells was confirmed using a confocal microscope.

[7] = test system: human epidermal keratinocyte cells; experiment: Cell protection effect against H2O2 oxidative stress (MTT); assay type: cell-based; conditions: then 1 mM H2O2 4 hours
Experimental: Through the results in Examples 2 to 6, it was confirmed that expression of the anti-oxidant proteins and the autophagy-related proteins in cells was increased by the compound represented by Structural Formula 1, and thus, autophagy in the cells was activated. Therefore, in order to confirm whether or not activation of autophagy as described above may protect cells from cytotoxicity caused by ROS, follow-up research into a cell protection effect was conducted.
As a specific experiment method, after treating human epidermal keratinocyte cells (Gibco BRL) with respective test materials (vitamin C and the compound represented by Structural Formula 1) at 0.1 mM or 1 mM, respectively, while culturing the cells in a 96-well culture dish, the cells were cultured for 24 hours or 48 hours, the resultant was washed, and 1 mM H2O2 was added thereto, and additional culturing was performed for 4 hours. Thereafter, each of the wells was washed, 10 ul of 3-(4,5-dimethylthiazol-2-yl)-2,5-diphenyltetrazolium bromide (MTT) dissolved in PBS (5 mg/ml) was added to each of the wells, and a reaction was carried out at 37° C. under a 5% CO2 condition. Thereafter, a supernatant was carefully removed, MTT formazan precipitated in the cells was dissolved in 100 ul of DMSO, and then absorbance at OD570 was measured using an enzyme-linked immunosorbent assay (ELISA) reader.

O=C(O)CN(CCCC[C@H](NC(=O)[C@H](CCCCN(CC(=O)O)CC(=O)O)N(CC(=O)O)CC(=O)O)C(=O)O)CC(=O)O [2-[2,6-bis-(bis-carboxymethyl-amino)-hexanoyl-amino]-6-(bis-carboxymethyl-amino)-hexanoic acid]
expression of proteins having high anti-oxidant activities (Prx2 monomer, Prx3, HSP70 based Grp75, HSP90B1, EPHX2, stanniocalcin2) ([1]; FIG. 5): increased
expression of proteins important in autophagy and detoxification activities (BiP, FoxO1, sirtuin5) ([1]; FIG. 6): increased
number of autophagolysosome [2]: significantly increased
number of autophagosome (increase by treatment) [2]: ≥ 2 times
number of phagophore [2]: significantly increased
transcription of genes associated with anti-oxidation and autophagy [3]: increased
amount of intracellular ROS formed by treatment with H2O2 [4]: almost disappeared
scavenging activity on the activated ABTS radical [5]: concentration-dependent scavenging activity
formation of LC3 puncta in the cells [6]: a large amount of a LC puncta
cell viability ([7]; 0.1 mM or 1 mM, pre-treatment for 24 hours, FIG. 10): improved
cell viability ([7]; 0.1 mM or 1 mM, pre-treatment for 48 hours, FIG. 11): improved

O=C1O[C@H]([C@@H](O)CO)C(O)=C1O [vitamin C, reference compound]
amount of intracellular ROS formed by treatment with H2O2 [4]: not decreased
scavenging activity on the activated ABTS radical [5]: concentration-dependent scavenging activity
formation of LC3 puncta in the cells [6]: not increased
cell viability ([7]; 1 mM, pre-treatment for 24 hours, FIG. 10): rather deteriorated
cell viability ([7]; 1 mM, pre-treatment for 48 hours, FIG. 11): rather deteriorated
viability at 100 µM ([7]; Homo sapiens, Keratinocyte, 0.1 mM, pre-treatment for 24 hours, FIG. 10): ~95%
